These results are taken from patent US8623326B2 (University of Western Ontario, priority 2008, dated 2014).

For this assay, the target named is T1, GHSR (Homo sapiens, UniProt Q92847).
T1 construct: expressed in transfected cells; host or cells: CHO-K1
The experiment in a line: Radioligand binding assay (125I-ghrelin displacement). The settings on record: 125I-ghrelin (human) radioligand; for IC50: read-out: IC50 (nM), binding affinity of fluorine bearing ghrelin analogues, human recombinant CHO-K1 cells as receptor source, 18a-c semi-quantitative from % inhibition at 10^-5 to 10^-8 M, duplicated.

Where a SMILES comes first, the peptide text is derived from it. [ ]: non-standard residue; d: D form. The star is where a group is joined. Dap = NC[C@H](N)C(=O)O; X1 = O=C(CCCCCF)*

T1 sequence (Q92847 whole entry): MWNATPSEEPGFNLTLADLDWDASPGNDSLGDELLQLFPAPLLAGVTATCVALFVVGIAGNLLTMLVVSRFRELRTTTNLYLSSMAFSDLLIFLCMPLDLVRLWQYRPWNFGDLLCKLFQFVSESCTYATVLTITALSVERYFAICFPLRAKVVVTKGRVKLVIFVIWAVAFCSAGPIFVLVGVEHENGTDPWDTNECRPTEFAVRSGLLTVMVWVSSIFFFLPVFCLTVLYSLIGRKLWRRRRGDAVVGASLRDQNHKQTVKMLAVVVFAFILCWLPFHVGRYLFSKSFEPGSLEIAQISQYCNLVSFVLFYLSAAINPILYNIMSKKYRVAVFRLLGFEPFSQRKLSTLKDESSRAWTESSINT
Procedure: Radioligand Binding Assay.
IC50 values were determined by a non-linear, least squares regression analysis using MathIQ™ (ID Business Solutions Ltd., UK).

As a reminder, the inhibition is the relative decrease from the control value, in per cent. Lower therefore signals a response near the control. Take `CC(C)C[C@H](NC(=O)[C@H](Cc1ccccc1)NC(=O)[C@H](CNC(=O)CCCCCF)NC(=O)[C@H](CO)NC(=O)CN)C(N)=O` [Cmpd 17, Ghrelin(1-5)-6C—F] (H-GS[Dap](X1)FL-NH2): where the note is “at 2000 nM”, the inhibition at 2 µM was approximately 20%.

Usually IC50 stands for the concentration that gives 50% inhibition. With `CC(C)C[C@H](NC(=O)[C@H](Cc1ccccc1)NC(=O)[C@H](CNC(=O)CCCCCCCCCCCF)NC(=O)[C@H](CO)NC(=O)CN)C(=O)N[C@@H](CO)C(=O)N1CCC[C@H]1C(=O)N[C@@H](CCC(=O)O)C(=O)N[C@@H](Cc1c[nH]cn1)C(=O)N[C@@H](CCC(N)=O)C(=O)N[C@@H](CCCNC(=N)N)C(=O)N[C@H](C(=O)N[C@@H](CCC(N)=O)C(=O)N[C@@H](CCC(N)=O)C(N)=O)C(C)C` [Cmpd 18c, Ghrelin(1-14)-12C—F], the IC50 stood at 27.9 nM.

Take `CC(C)C[C@H](NC(=O)[C@H](Cc1ccccc1)NC(=O)[C@H](CNC(=O)CCCCCF)NC(=O)[C@H](CO)NC(=O)CN)C(=O)N[C@@H](CO)C(=O)N1CCC[C@H]1C(=O)N[C@@H](CCC(=O)O)C(=O)N[C@@H](Cc1c[nH]cn1)C(=O)N[C@@H](CCC(N)=O)C(=O)N[C@@H](CCCNC(=N)N)C(=O)N[C@H](C(=O)N[C@@H](CCC(N)=O)C(=O)N[C@@H](CCC(N)=O)C(N)=O)C(C)C` [Cmpd 18a, Ghrelin(1-14)-6C—F]: the 50% inhibitory concentration (IC50) worked out at 147 nM.

As for `CC(C)C[C@H](NC(=O)[C@H](Cc1ccccc1)NC(=O)[C@H](CNC(=O)CCCCCCCCF)NC(=O)[C@H](CO)NC(=O)CN)C(=O)N[C@@H](CO)C(=O)N1CCC[C@H]1C(=O)N[C@@H](CCC(=O)O)C(=O)N[C@@H](Cc1c[nH]cn1)C(=O)N[C@@H](CCC(N)=O)C(=O)N[C@@H](CCCNC(=N)N)C(=O)N[C@H](C(=O)N[C@@H](CCC(N)=O)C(=O)N[C@@H](CCC(N)=O)C(N)=O)C(C)C` [Cmpd 18b, Ghrelin(1-14)-9C—F], the IC50 turned out to be 39.6 nM.
